Measurements as given in ChEMBL document CHEMBL1135698, “Synthesis, antitumor activity, molecular modeling, and DNA binding properties of a new series of imidazonaphthalimides” (J Med Chem, 2002).

Assays:
Assay type in all cases: functional, cell-based
HT-29 = assay: In vitro concentration required to reduce cell number to 50% in human colon carcinoma (HT-29) culture
HeLa = assay: In vitro concentration required to reduce cell number to 50% in human cervical carcinoma (HeLa) culture
PC-3 = assay: In vitro concentration required to reduce cell number to 50% in human postrate carcinoma (PC-3) culture

IC50 (HT-29) [µM] | IC50 (HeLa) [µM] | IC50 (PC-3) [µM] | Compound
> 100 | > 100 | 36.3 | Cc1nc2cc3c4c(cccc4c2[nH]1)C(=O)N(CCCN(C)CCCN1C(=O)c2cccc4c2c(cc2nc(C)[nH]c24)C1=O)C3=O
0.32 | 0.8 | 3.22 | Cc1nc2cc3c4c(cccc4c2[nH]1)C(=O)N(CCN(C)CCCN(C)CCN1C(=O)c2cccc4c2c(cc2nc(C)[nH]c24)C1=O)C3=O
3.11 | 6.09 | 4.22 | Cc1nc2c(cc3c4c(cccc42)C(=O)N(CCN2CCCC2)C3=O)[nH]1
1.08 | 3.49 | > 100 | Cc1nc2c(cc3c4c(cccc42)C(=O)N(CCNCCNCCN2C(=O)c4cccc5c4c(cc4nc(C)[nH]c45)C2=O)C3=O)[nH]1
0.94 | 2.35 | 10.4 | Cc1nc2cc3c4c(cccc4c2[nH]1)C(=O)N(CCN(C)C)C3=O
17.5 | 4.45 | > 100 | Cc1nc2cc3c4c(cccc4c2[nH]1)C(=O)N(CCN(C)CCN1C(=O)c2cccc4c2c(cc2nc(C)[nH]c24)C1=O)C3=O
8.5 | 8.26 | > 100 | Cc1nc2c(cc3c4c(cccc42)C(=O)N(CCNCCCNCCN2C(=O)c4cccc5c4c(cc4nc(C)[nH]c45)C2=O)C3=O)[nH]1
3.83 | 8.62 | > 100 | Cc1nc2cc3c4c(cccc4c2[nH]1)C(=O)N(CCN(C)CCN(C)CCN1C(=O)c2cccc4c2c(cc2nc(C)[nH]c24)C1=O)C3=O
15 | 8.75 | 744 | Cc1nc2c(cc3c4c(cccc42)C(=O)N(CCCNCCNCCCN2C(=O)c4cccc5c4c(cc4nc(C)[nH]c45)C2=O)C3=O)[nH]1
0.017 | 0.07 | 0.32 | O=C1c2cccc3cccc(c23)C(=O)N1CCNCCCNCCN1C(=O)c2cccc3cccc(c23)C1=O [ELINAFIDE]

Compound | IC50 (HT-29) [µM] | IC50 (HeLa) [µM] | IC50 (PC-3) [µM]
CN(C)CCN1C(=O)c2cccc3cc(N)cc(c23)C1=O [AMONAFIDE] | 4.67 | 2.73 | 6.38
